Measured values as given in patent publication US20250122218A1, “MODULATORS OF CYSTIC FIBROSIS TRANSMEMBRANE CONDUCTANCE REGULATOR” (Vertex Pharmaceuticals Incorporated, priority 2022, published 2025).

Target: T1, CFTR in F508del/MF-HBE cells (Homo sapiens, UniProt P13569, DEL508-508)
T1 construct: human bronchial epithelial (HBE) cells derived from CF subjects heterozygous for F508del and a minimal function CFTR mutation; endogenous in cells; host or cells: primary human bronchial epithelial cells from CF subjects (F508del/MF-HBE)
Assay: Ussing chamber assay of CFTR-mediated short-circuit currents (identification of potentiator compounds)
Format: cell-based
Conditions: potentiator incubated 18-24 hours at 37° C. in combination with 10 μM corrector, in the presence of 20% human serum, CFTR-mediated ISC
Description: Ussing chamber experiments were performed using human bronchial epithelial (HBE) cells derived from CF subjects heterozygous for F508del and a minimal function CFTR mutation (F508del/MF-HBE) and cultured as previously described (Neuberger T, Burton B, Clark H, Van Goor F; Methods Mol. Biol. 2011:741:39-54). After four days the apical media was removed, and the cells were grown at an air liquid interface for >14 days prior to use.
To isolate the CFTR-mediated short-circuit (ISC) current, F508del/MF-HBE grown on Costar® Snapwell™ cell culture inserts were mounted in an Ussing chamber and the transepithelial ISC was measured under voltage-clamp recording conditions (Vhold=0 mV) at 37° C. The basolateral solution contained (in mM) 145 NaCl, 0.83 K2HPO4, 3.3 KH2PO4, 1.2 MgCl2, 1.2 CaCl2), 10 Glucose, 10 HEPES (pH adjusted to 7.4 with NaOH) and the apical solution contained (in mM) 145 NaGluconate, 1.2 MgCl2, 1.2 CaCl2), 10 glucose, 10 HEPES (pH adjusted to 7.4 with NaOH) and 30 μM amiloride to block the epithelial sodium channel. Forskolin (20 μM) was added to the apical surface to activate CFTR, followed by apical addition of a CFTR inhibitor cocktail consisting of BPO, GlyH-101 and CFTR inhibitor 172 (each at 20 μM final assay concentration) to specifically isolate CFTR currents. The CFTR-mediated ISC (μA/cm^2) for each condition was determined from the peak forskolin response to the steady-state current following inhibition.
The activity of the CFTR potentiator compounds on the CFTR-mediated ISC was determined in Ussing chamber studies as described above. The F508del/MF-HBE cell cultures were incubated with the potentiator compounds at a range of concentrations in combination with 10 μM (14S)-8-[3-(2-{dispiro[2.0.2.1]heptan-7-yl}ethoxy)-1H-pyrazol-1-yl]-12,12-dimethyl-2λ^6-thia-3,9,11,18,23-pentaazatetracyclo[17.3.1.111,14.05,10]tetracosa-1(22),5,7,9,19(23),20-hexaene-2,2,4-trione for 18-24 hours at 37° C. and in the presence of 20% human serum. The concentration of potentiator compounds and (14S)-8-[3-(2-{dispiro[2.0.2.1]heptan-7-yl}ethoxy)-1H-pyrazol-1-yl]-12,12-dimethyl-2λ^6-thia-3,9,11,18,23-pentaazatetracyclo[17.3.1.111,14.05,10]tetracosa-1(22),5,7,9,19(23),20-hexaene-2,2,4-trione used during the 18-24 hours incubations was kept constant throughout the Ussing chamber measurement of the CFTR-mediated ISC to ensure compounds were present throughout the entire experiment. The efficacy and potency of the putative F508del potentiators was compared to that of the known potentiator, ivacaftor (N-[2,4-bis(1,1-dimethylethyl)-5-hydroxyphenyl]-1,4-dihydro-4-oxoquinoline-3-carboxamide).

T1 sequence (P13569 with tags, fused parts or gaps DEL508-508): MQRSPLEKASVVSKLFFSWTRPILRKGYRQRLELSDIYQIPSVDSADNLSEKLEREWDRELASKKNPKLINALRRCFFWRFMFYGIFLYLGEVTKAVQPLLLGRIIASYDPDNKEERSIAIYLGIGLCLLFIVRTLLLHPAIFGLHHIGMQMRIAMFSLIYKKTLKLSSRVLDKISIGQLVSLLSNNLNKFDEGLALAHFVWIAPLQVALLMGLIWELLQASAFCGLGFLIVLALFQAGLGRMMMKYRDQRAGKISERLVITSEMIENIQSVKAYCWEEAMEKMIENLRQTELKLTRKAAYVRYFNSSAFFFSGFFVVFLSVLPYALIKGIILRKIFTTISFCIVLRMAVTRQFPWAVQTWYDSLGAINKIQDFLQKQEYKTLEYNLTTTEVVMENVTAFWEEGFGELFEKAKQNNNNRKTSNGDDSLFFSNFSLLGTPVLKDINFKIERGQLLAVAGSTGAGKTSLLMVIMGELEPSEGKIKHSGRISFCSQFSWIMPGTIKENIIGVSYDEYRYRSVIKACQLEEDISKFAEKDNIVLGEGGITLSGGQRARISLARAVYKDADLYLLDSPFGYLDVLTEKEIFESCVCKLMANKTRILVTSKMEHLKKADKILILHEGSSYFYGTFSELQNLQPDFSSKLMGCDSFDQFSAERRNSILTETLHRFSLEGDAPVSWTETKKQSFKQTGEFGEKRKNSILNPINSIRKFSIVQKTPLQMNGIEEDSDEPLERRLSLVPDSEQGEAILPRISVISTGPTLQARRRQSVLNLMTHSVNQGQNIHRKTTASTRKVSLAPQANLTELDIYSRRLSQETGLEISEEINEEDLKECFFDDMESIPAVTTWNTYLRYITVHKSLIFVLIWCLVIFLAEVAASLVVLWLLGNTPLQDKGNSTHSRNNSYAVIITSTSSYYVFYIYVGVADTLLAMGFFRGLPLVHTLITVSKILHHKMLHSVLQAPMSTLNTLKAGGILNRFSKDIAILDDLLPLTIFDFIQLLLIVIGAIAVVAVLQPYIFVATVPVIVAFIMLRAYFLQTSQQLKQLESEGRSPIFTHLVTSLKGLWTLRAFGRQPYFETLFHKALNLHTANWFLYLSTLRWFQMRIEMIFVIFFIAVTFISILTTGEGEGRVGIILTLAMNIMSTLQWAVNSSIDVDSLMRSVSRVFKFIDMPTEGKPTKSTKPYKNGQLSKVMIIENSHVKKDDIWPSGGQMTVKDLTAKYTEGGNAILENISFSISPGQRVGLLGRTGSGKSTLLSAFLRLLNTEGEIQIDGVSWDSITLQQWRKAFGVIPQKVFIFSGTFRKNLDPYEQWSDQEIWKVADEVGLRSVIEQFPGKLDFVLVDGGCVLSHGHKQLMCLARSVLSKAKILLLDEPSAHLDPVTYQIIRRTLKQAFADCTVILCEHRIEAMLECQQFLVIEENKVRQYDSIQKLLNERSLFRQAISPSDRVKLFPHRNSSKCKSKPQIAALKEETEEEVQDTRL

| EC50 | Compound |
| --- | --- |
| < 500 nM | Nc1cc(C(F)(F)F)c2nc1-c1nnc(o1)[C@@](O)(C(F)(F)F)CCCCCN(Cc1ccc(OC(F)(F)F)c(F)c1)C2=O [Compound 265, (6R)-17-amino-12-[[3-fluoro-4-(trifluoromethoxy)phenyl]methyl]-6-hydroxy-6,15-bis(trifluoromethyl)-19-oxa-3,4,12,18-tetrazatricyclo [12.3.1.12,5] nonadeca-1(18),2,4,14,16-pentaen-13-one] |
| < 500 nM | CC(C)(C)C12CC(N3CCCCC[C@](O)(C(F)(F)F)c4nnc(o4)-c4nc(c(C(F)(F)F)cc4N)C3=O)(C1)C2 [Compound 123, (6R)-17-Amino-12-(3-tert-butyl-1-bicyclo[1.1.1]pentanyl)-6-hydroxy-6,15-bis (trifluoromethyl)-19-oxa-3,4,12,18-tetrazatricyclo [12.3.1.12,5] nonadeca-1(18),2,4,14,1 6-pentaen-13-one] |
| < 500 nM | CCCN1CCCCC[C@](O)(C(F)(F)F)C2=NN=C(O2)c2nc(c(C(F)(F)F)cc2N)C1=O [Compound 82, (6R)-17-Amino-6-hydroxy-12-propyl-6,15-bis (trifluoromethyl)-19-oxa-3,4,12,18-tetrazatricyclo [12.3.1.12,5] nonadeca-1(18),2,4,14,1 6-pentaen-13-one] |
| < 500 nM | 17-amino-12-[(3-tert- butylphenyl)methyl]- 6-hydroxy-6,15- bis(trifluoromethyl)- 8,19-dioxa-3,4,12,18- tetrazatricyclo [12.3.1.12,5] nonadeca- 1(18),2,4,14,16- pentaen-13-one [Compound 261] |
| < 500 nM | CC(C)(C)c1ccc(C2(N3CCCCCC(O)(C(F)(F)F)C4=NN=C(O4)c4nc(c(C(F)(F)F)cc4N)C3=O)CC2)cc1 (single isomer, unassigned) [Compound 227, 17-amino-12-[1-(4-tert-butylphenyl)cyclo-propyl]-6-hydroxy-6,15-bis(trifluoromethyl)-19-oxa-3,4,12,18-tetrazatricyclo [12.3.1.12,5] nonadeca-1(18),2,4,14,16-pentaen-13-one] |
| < 500 nM | CC1(C)CCC2CCCC[C@](O)(C(F)(F)F)C3=NN=C(O3)c3nc(c(C(F)(F)F)cc3N)C(=O)N21 (single isomer, unassigned) [Compound 114] |
| < 500 nM | Nc1cc(C(F)(F)F)c2nc1-c1nnc(o1)[C@@](O)(C(F)(F)F)CCCCCN([C@H]1CC[C@H](C(F)(F)F)CC1)C2=O [Compound 209, (6R)-17-amino-6-hydroxy-12-[(1r,4r)-4-(trifluoromethyl)cyclohexyl]-6,15-bis(trifluoromethyl)-19-oxa-3,4,12,18-tetraazatricyclo [12.3.1.12,5] nonadeca-1(18),2,4,14,16-pentaen-13-one] |
| < 500 nM | Nc1cc(C(F)(F)F)c2nc1-c1nnc(o1)[C@@](O)(C(F)(F)F)CCCCCN(Cc1cc(F)cc(Cl)c1)C2=O [Compound 257, (6R)-17-amino-12-[(3-chloro-5-fluoro-phenyl)methyl]-6-hydroxy-6,15-bis(trifluoromethyl)-19-oxa-3,4,12,18-tetrazatricyclo [12.3.1.12,5] nonadeca-1(18),2,4,14,16-pentaen-13-one] |
| < 500 nM | Nc1cc(C(F)(F)F)c2nc1-c1nnc(o1)[C@@](O)(C(F)(F)F)CCCCCN(Cc1cccc(OC(F)(F)F)c1)C2=O [Compound 142, (6R)-17-amino-6-hydroxy-12-[[3-(trifluoromethoxy)phenyl]methyl]-6,15-bis (trifluoromethyl)-19-oxa-3,4,12,18-tetrazatricyclo [12.3.1.12,5] nonadeca-1(18),2,4,14,1 6-pentaen-13-one] |
| < 500 nM | Nc1cc(C(F)(F)F)c2nc1-c1nnc(o1)[C@@](O)(C(F)(F)F)CCCCCN(Cc1cc(C3CC3)ccc1F)C2=O [Compound 259, (6R)-17-amino-12-[(5-cyclopropyl-2-fluoro-phenyl)methyl]-6-hydroxy-6,15-bis(trifluoromethyl)-19-oxa-3,4,12,18-tetrazatricyclo [12.3.1.12,5] nonadeca-1(18),2,4,14,16-pentaen-13-one] |
| < 500 nM | CC(C)n1cc(CN2CCCCC[C@](O)(C(F)(F)F)C3=NN=C(O3)c3nc(c(C(F)(F)F)cc3N)C2=O)cn1 [Compound 128, (6R)-17-amino-6-hydroxy-12-[(1-isopropylpyrazol-4-yl)methyl]-6,1-bis (trifluoromethyl)-19-oxa-3,4,12,18-tetrazatricyclo [12.3.1.12,5] nonadeca-1(18),2,4,14,1 6-pentaen-13-one] |
| < 500 nM | CC(C)Oc1cccc(CN2CCCCC[C@](O)(C(F)(F)F)C3=NN=C(O3)c3nc(c(C(F)(F)F)cc3N)C2=O)c1 [Compound 172, (6R)-17-amino-6-hydroxy-12-[(3-isopropoxyphenyl)methyl]-6,15-bis (trifluoromethyl)-19-oxa-3,4,12,18-tetrazatricyclo [12.3.1.12,5] nonadeca-1(18),2,4,14,1 6-pentaen-13-one] |
| < 500 nM | Nc1cc(C(F)(F)F)c2nc1-c1nnc(o1)[C@](O)(C(F)(F)F)CCC(F)(F)CCCC2=O [Compound 41, (6S)-17-amino-9,9-difluoro-6-hydroxy-6,15-bis(trifluoromethyl)-19-oxa-3,4,18-triazatricyclo[12.3.1.12,5]nonadeca-1(18),2,4,14,16-pentaen-13-one] |
| > 1000 nM | Nc1cc(C(F)(F)F)c2nc1-c1nnc(o1)C(O)(C(F)(F)F)CCCCCCC2O (single isomer, unassigned) [Compound 9, 17-amino-6,15-bis(trifluoromethyl)-19-oxa-3,4,18-triazatricyclo[12.3.1.12,5]nonadeca-1(18),2,4,14,16-pentaene-6,13-diol] |
| < 500 nM | N#C[C@H]1CC[C@H](N2CCCCC[C@](O)(C(F)(F)F)C3=NN=C(O3)c3nc(c(C(F)(F)F)cc3N)C2=O)CC1 [Compound 193, trans-4-[(6R)-17-amino-6-hydroxy-13-oxo-6,15-bis(trifluoromethyl)-19-oxa-3,4,12,18-tetraazatricyclo[12.3.1.12,5]nonadeca-1(18),2,4,14,16-pentaen-12-yl]cyclohexane-1-carbonitrile] |
| < 500 nM | Nc1cc(C(F)(F)F)c2nc1-c1nnc(o1)[C@@](O)(C(F)(F)F)CCCCCN(c1ccccn1)C2=O [Compound 107, (6R)-17-Amino-6-hydroxy-12-(2-pyridyl)-6,15-bis (trifluoromethyl)-19-oxa-3,4,12,18-tetrazatricyclo [12.3.1.12,5] nonadeca-1(18),2,4,14,1 6-pentaen-13-one] |
| < 500 nM | Nc1cc(C(F)(F)F)c2nc1-c1nnc(o1)[C@@](O)(C(F)(F)F)CCCCCC1(CCC1)C2=O [Compound 48, (6R)-17-amino-6-hydroxy-6,15-bis(trifluoromethyl)spiro[19-oxa-3,4,18-triazatricyclo[12.3.1.12,5]nonadeca-1(18),2,4,14,16-pentaene-12,1′-cyclobutane]-13-one] |
| < 500 nM | Nc1cc(C(F)(F)F)c2nc1-c1nnc(o1)[C@@](O)(C(F)(F)F)CC(F)(F)CCCCC2=O [Compound 44, (6R)-17-amino-8,8-difluoro-6-hydroxy-6,15-bis(trifluoromethyl)-19-oxa-3,4,18-triazatricyclo[12.3.1.12,5]nonadeca-1(18),2,4,14,16-pentaen-13-one] |
